# Measurements as given in ChEMBL document CHEMBL4507261, “Data for DCP probe A-192621” (2021).
# Key:
# [1] = target: Tyrosine-protein kinase receptor TYRO3 (Homo sapiens) (UniProt Q06418); details: Compound concentration 1000.0 nM
# [2] = target: Prostaglandin E2 receptor EP2 subtype (Homo sapiens) (UniProt P43116); assay: EP2 (h) Eurofins-Cerep binding assay; design: ligand concentration 3 nM; details: filed as agonist, Compound concentration 10.0 uM
# [3] = target: 5'-AMP-activated protein kinase catalytic subunit alpha-1 (Homo sapiens) (UniProt Q13131); details: Compound concentration 1000.0 nM
# [4] = test system: Phosphatidylinositol 4,5-bisphosphate 3-kinase catalytic subunit alpha isoform (Homo sapiens), P42336 [E545A]; details: Compound concentration 1000.0 nM
# [5] = target: Serine/threonine-protein kinase 17B (Homo sapiens) (UniProt O94768); details: Compound concentration 1000.0 nM
# Chain of Serine/threonine-protein kinase 17B (Homo sapiens) (O94768 whole entry): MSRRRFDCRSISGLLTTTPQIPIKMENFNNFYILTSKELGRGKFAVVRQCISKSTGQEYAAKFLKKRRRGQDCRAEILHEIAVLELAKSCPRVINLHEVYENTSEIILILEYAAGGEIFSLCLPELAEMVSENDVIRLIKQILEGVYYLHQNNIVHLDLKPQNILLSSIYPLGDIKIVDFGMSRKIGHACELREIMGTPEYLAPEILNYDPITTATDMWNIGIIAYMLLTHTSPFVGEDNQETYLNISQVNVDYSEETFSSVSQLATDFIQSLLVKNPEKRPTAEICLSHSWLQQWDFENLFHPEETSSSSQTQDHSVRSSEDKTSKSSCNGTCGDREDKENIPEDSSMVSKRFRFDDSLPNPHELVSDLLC
# [6] = target: Serine/threonine-protein kinase Nek1 (Homo sapiens) (UniProt Q96PY6); details: Compound concentration 1000.0 nM
# [7] = target: Dual serine/threonine and tyrosine protein kinase (Homo sapiens) (UniProt Q6XUX3); details: Compound concentration 1000.0 nM
# [8] = target: Serine/threonine-protein kinase Nek7 (Homo sapiens) (UniProt Q8TDX7); details: Compound concentration 1000.0 nM
# [9] = test system: Receptor-type tyrosine-protein kinase FLT3 (Homo sapiens), P36888 [D835Y]; details: Compound concentration 1000.0 nM
# [10] = test system: eIF-2-alpha kinase GCN2 (Homo sapiens), Q9P2K8 [S808G]; details: Compound concentration 1000.0 nM
# Chain of eIF-2-alpha kinase GCN2 (Homo sapiens), Q9P2K8 [S808G] (Q9P2K8 whole entry S808G): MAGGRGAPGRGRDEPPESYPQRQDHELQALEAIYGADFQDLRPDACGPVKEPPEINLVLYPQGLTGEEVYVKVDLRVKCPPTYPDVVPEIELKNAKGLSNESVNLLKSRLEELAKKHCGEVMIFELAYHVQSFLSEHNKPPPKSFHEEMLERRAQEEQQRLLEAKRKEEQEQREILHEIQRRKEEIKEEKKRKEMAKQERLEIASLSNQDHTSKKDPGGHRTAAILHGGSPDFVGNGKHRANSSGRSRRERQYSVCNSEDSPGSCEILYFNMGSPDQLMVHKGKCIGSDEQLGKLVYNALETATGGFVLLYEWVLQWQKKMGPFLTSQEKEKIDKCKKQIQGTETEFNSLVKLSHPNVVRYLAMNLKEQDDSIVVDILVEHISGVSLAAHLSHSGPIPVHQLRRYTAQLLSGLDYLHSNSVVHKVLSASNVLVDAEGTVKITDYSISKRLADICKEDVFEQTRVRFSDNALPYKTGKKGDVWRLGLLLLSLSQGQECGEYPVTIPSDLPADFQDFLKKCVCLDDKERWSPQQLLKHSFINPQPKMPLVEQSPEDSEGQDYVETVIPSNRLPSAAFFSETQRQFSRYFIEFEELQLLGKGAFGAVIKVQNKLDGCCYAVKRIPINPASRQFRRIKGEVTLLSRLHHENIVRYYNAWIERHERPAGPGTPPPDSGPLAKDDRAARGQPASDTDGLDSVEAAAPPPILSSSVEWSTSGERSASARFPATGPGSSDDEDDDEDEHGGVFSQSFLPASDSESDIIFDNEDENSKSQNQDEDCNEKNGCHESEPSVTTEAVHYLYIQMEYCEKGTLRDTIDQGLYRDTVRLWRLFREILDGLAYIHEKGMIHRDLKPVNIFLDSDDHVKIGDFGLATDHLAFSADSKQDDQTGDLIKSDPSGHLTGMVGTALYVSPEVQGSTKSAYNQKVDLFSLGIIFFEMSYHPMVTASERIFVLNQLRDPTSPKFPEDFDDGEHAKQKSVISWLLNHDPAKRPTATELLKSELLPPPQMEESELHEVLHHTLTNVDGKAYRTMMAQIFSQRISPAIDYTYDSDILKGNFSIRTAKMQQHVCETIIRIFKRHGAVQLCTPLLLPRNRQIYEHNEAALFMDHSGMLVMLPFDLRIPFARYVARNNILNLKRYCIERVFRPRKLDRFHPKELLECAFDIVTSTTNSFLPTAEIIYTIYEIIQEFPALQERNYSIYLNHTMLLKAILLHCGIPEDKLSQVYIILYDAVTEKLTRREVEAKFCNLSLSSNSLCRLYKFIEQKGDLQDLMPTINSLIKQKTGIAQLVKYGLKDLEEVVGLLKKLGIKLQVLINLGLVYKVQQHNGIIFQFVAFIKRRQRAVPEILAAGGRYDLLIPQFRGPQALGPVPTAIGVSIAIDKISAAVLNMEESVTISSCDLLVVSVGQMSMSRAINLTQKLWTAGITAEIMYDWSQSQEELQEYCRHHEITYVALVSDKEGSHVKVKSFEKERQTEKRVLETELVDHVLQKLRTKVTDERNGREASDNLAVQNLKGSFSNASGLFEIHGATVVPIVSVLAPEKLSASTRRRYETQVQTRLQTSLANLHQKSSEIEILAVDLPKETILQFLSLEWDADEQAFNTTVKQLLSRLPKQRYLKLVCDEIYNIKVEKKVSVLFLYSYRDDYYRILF
# [11] = target: Atypical kinase COQ8B, mitochondrial (Homo sapiens) (UniProt Q96D53); details: Compound concentration 1000.0 nM
# Chain of Atypical kinase COQ8B, mitochondrial (Homo sapiens) (Q96D53 whole entry): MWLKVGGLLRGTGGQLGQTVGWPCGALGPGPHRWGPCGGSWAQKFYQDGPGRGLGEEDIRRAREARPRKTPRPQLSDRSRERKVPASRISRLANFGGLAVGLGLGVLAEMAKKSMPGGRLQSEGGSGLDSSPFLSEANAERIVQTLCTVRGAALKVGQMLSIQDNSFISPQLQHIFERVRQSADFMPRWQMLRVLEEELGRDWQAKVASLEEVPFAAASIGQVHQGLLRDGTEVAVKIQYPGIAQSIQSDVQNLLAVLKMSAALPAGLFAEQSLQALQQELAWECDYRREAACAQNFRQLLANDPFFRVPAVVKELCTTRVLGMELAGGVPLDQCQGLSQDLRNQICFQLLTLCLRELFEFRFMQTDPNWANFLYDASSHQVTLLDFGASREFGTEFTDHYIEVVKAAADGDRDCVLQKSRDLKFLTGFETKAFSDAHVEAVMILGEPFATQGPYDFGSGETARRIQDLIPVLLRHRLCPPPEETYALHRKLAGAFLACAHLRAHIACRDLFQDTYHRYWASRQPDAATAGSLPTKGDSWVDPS
# [12] = target: Interferon-induced, double-stranded RNA-activated protein kinase (Homo sapiens) (UniProt P19525); details: Compound concentration 1000.0 nM
# [13] = target: Dual specificity mitogen-activated protein kinase kinase 5 (Homo sapiens) (UniProt Q13163); details: Compound concentration 1000.0 nM
# Chain of Dual specificity mitogen-activated protein kinase kinase 5 (Homo sapiens) (Q13163 whole entry): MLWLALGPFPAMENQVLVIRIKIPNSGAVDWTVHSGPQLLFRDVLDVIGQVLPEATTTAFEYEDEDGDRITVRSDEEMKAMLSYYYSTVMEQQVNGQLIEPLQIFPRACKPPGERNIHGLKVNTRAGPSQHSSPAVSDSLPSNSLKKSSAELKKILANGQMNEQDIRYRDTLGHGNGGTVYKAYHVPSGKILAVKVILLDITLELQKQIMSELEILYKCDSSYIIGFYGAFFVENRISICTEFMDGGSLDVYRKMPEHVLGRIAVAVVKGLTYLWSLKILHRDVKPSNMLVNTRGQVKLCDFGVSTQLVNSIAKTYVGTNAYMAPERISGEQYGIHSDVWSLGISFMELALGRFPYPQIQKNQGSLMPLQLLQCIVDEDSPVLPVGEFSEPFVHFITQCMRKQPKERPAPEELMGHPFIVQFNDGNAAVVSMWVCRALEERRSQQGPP
# [14] = target: T1, Muscarinic acetylcholine receptor M2 (Homo sapiens) (UniProt P08172); assay: M2 (h) Eurofins-Cerep binding assay; design: ligand concentration 2 nM; details: filed as antagonist, Compound concentration 10.0 uM
# T1 sequence (whole entry): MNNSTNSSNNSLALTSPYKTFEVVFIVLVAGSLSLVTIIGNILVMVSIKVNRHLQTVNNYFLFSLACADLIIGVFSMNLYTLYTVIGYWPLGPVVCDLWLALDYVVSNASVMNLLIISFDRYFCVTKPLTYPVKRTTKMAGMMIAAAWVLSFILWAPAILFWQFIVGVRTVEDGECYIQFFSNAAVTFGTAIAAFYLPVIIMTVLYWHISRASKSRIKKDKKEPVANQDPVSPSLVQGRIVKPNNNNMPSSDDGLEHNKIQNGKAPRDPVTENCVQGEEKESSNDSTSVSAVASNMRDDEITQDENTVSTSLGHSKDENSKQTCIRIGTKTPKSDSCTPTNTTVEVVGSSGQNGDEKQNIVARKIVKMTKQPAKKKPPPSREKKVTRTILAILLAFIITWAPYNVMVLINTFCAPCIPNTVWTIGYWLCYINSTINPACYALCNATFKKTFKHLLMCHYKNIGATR
# [15] = test system: Epidermal growth factor receptor (Homo sapiens), P00533 [UNDEFINED MUTATION]; details: Compound concentration 1000.0 nM
# [16] = target: Cyclin-dependent kinase 11A (Homo sapiens) (UniProt Q9UQ88); details: Compound concentration 1000.0 nM
# [17] = target: Mitogen-activated protein kinase kinase kinase 3 (Homo sapiens) (UniProt Q99759); details: Compound concentration 1000.0 nM
# [18] = target: Cyclin-dependent kinase-like 5 (Homo sapiens) (UniProt O76039); details: Compound concentration 1000.0 nM
# Chain of Cyclin-dependent kinase-like 5 (Homo sapiens) (O76039 whole entry): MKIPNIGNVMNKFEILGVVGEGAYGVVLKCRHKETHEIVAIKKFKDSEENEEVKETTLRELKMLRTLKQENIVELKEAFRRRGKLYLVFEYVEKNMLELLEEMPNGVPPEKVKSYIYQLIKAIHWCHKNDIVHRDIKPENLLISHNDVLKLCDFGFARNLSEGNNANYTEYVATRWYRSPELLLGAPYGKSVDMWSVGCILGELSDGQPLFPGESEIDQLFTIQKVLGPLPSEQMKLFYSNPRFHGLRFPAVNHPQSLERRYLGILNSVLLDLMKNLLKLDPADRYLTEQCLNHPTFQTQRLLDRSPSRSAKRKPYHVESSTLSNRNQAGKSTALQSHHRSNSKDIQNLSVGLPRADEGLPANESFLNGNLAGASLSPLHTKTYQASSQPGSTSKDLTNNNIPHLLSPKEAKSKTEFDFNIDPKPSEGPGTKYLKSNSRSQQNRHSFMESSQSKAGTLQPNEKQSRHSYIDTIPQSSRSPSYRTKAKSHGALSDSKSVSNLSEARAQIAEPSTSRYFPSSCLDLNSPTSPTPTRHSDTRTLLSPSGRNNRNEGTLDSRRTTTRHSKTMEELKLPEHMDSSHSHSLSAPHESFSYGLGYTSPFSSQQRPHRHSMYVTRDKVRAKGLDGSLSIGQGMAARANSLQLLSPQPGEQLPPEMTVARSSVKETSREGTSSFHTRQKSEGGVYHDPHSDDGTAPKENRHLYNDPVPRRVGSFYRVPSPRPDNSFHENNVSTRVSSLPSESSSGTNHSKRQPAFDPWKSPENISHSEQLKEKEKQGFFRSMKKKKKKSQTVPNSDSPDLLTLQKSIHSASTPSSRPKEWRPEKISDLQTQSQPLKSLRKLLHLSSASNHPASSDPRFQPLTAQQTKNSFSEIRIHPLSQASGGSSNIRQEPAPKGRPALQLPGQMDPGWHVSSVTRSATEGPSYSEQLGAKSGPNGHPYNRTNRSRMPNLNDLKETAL
# [19] = target: Serine/threonine-protein kinase MRCK gamma (Homo sapiens) (UniProt Q6DT37); details: Compound concentration 1000.0 nM
# [20] = target: Mitogen-activated protein kinase kinase kinase 9 (Homo sapiens) (UniProt P80192); details: Compound concentration 1000.0 nM
# Chain of Mitogen-activated protein kinase kinase kinase 9 (Homo sapiens) (P80192 whole entry, looked up): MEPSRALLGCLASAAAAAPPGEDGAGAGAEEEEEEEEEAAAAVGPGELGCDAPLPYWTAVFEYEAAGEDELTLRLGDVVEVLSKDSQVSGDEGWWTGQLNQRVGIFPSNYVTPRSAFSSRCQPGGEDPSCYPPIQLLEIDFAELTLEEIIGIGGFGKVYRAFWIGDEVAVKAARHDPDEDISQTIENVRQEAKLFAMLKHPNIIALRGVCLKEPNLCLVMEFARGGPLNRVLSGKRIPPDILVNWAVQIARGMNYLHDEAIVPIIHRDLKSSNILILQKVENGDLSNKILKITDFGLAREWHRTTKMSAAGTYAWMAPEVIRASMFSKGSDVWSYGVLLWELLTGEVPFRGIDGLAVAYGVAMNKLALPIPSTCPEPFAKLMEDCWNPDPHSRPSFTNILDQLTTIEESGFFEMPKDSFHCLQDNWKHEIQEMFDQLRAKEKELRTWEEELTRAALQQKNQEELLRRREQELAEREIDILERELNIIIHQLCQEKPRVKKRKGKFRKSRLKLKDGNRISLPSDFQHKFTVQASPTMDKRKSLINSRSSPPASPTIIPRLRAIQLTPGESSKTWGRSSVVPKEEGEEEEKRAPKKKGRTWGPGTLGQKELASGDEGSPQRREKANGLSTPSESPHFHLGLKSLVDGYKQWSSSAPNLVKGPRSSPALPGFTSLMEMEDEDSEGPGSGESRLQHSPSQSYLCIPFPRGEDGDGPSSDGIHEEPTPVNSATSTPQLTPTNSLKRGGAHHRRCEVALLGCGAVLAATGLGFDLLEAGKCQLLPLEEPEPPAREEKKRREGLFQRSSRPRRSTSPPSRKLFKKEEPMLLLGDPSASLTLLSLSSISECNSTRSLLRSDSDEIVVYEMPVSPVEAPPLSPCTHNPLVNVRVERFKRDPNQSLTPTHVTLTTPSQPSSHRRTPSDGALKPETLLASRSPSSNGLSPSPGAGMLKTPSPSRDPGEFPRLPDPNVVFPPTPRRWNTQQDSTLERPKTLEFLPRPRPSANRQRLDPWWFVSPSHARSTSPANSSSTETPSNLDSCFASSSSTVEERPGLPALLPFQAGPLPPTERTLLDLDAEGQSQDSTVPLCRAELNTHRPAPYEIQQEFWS
# [21] = target: Tyrosine-protein kinase ITK/TSK (Homo sapiens) (UniProt Q08881); details: Compound concentration 1000.0 nM
# [22] = target: cGMP-dependent protein kinase 1 (Homo sapiens) (UniProt Q13976); details: Compound concentration 1000.0 nM
# [23] = target: Serine/threonine-protein kinase PAK 5 (Homo sapiens) (UniProt Q9P286); details: Compound concentration 1000.0 nM
# [24] = target: NT-3 growth factor receptor (Homo sapiens) (UniProt Q16288); details: Compound concentration 1000.0 nM
# [25] = target: 1-phosphatidylinositol 3-phosphate 5-kinase (Homo sapiens) (UniProt Q9Y2I7); details: Compound concentration 1000.0 nM
# [26] = target: cAMP-dependent protein kinase catalytic subunit beta (Homo sapiens) (UniProt P22694); details: Compound concentration 1000.0 nM
# [27] = target: T2, 5-hydroxytryptamine receptor 2C (Homo sapiens) (UniProt P28335); assay: 5-HT2C (h) Eurofins-Cerep binding assay; design: ligand concentration 1 nM; details: filed as antagonist, Compound concentration 10.0 uM
# T2 sequence (whole entry): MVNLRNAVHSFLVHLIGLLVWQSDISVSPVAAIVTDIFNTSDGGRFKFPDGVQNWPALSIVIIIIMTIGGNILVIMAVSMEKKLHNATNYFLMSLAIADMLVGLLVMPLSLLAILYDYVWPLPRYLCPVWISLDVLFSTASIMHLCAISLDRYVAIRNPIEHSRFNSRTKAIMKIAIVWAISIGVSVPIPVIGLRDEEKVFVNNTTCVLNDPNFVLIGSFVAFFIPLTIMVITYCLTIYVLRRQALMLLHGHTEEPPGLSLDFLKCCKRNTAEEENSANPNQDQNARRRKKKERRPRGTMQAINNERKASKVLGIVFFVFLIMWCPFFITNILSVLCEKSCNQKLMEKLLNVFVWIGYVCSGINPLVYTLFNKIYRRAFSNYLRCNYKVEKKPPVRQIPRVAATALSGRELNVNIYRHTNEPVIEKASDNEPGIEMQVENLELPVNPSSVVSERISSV
# [28] = test system: Receptor-type tyrosine-protein kinase FLT3 (Homo sapiens), P36888 [R834Q]; details: Compound concentration 1000.0 nM
# [29] = target: Death-associated protein kinase 3 (Homo sapiens) (UniProt O43293); details: Compound concentration 1000.0 nM
# [30] = target: Vascular endothelial growth factor receptor 3 (Homo sapiens) (UniProt P35916); details: Compound concentration 1000.0 nM
# [31] = target: Mitogen-activated protein kinase 11 (Homo sapiens) (UniProt Q15759); details: Compound concentration 1000.0 nM
# [32] = target: Receptor-interacting serine/threonine-protein kinase 4 (Homo sapiens) (UniProt P57078); details: Compound concentration 1000.0 nM
SMILES,residual activity [1],% Inhibition of Control Specific Binding (Mean n=2) [2],residual activity [3],residual activity [4],residual activity [5],residual activity [6],residual activity [7],residual activity [8],residual activity [9],residual activity [10],residual activity [11],residual activity [12],residual activity [13],% Inhibition of Control Specific Binding (Mean n=2) [14],residual activity [15],residual activity [16],residual activity [17],residual activity [18],residual activity [19],residual activity [20],other results
CCCOc1ccc([C@H]2[C@H](C(=O)O)[C@@H](c3ccc4c(c3)OCO4)CN2CC(=O)Nc2c(CC)cccc2CC)cc1 [A-192621],100%,10.1%,100%,92%,91%,87%,73%,96%,100%,90%,90%,100%,63%,-8.8%,89%,98%,74%,85%,79%,93%,residual activity [21]: 96%; residual activity [22]: 88%; residual activity [23]: 73%; residual activity [24]: 71%; residual activity [25]: 86%; residual activity [26]: 87%; % Inhibition of Control Specific Binding (Mean n=2) [27]: 1.2%; residual activity [28]: 91%; residual activity [29]: 89%; residual activity [30]: 90%; residual activity [31]: 95%; residual activity [32]: 69%
CCCOc1ccc([C@@H]2[C@@H](C(=O)O)[C@H](c3ccc4c(c3)OCO4)CN2CC(=O)Nc2c(CC)cccc2CC)cc1 [A-1806262],94%,10.7%,96%,92%,93%,100%,82%,100%,100%,100%,89%,100%,100%,-7.1%,66%,100%,85%,83%,57%,93%,residual activity [21]: 100%; residual activity [22]: 97%; residual activity [23]: 88%; residual activity [24]: 91%; residual activity [25]: 91%; residual activity [26]: 100%; % Inhibition of Control Specific Binding [27]: 0%; residual activity [28]: 100%; residual activity [29]: 79%; residual activity [30]: 100%; residual activity [31]: 98%; residual activity [32]: 100%
